Measured values published in patent US6930088B2, “Conformationally constrained backbone cyclized somatostatin analogs” (Peptor Ltd., priority 1998, dated 2005).
Blank lines part the entries; values can stand above or below the molecule they belong to. *1 amine or outer side, *2 acyl side, *3 side chain or, on linkers, in order; H or OH if unused. Where a SMILES comes first, the peptide text is derived from it. Bridges are numbered along the chain shown (N, C = ends). Where no end group is shown, it is not given here. [ ]: non-standard residue; d: D form. N(2-aminoethyl)Phe = O=C([C@H](Cc1ccccc1)N(CCN[*:3])[*:1])[*:2]; N(CH2CH2CO)Gly = O=C(CN(CCC(=O)[*:3])[*:1])[*:2]; 2Nal = N[C@@H](Cc1ccc2ccccc2c1)C(=O)O; Gly(S2) = not defined here; Phe(C1) = not defined here; Mpa = O=C(O)CCS

Experiments:
[1] = target: T1, SSTR-3 (Homo sapiens, UniProt P32745); experiment: Inhibition of 125I-Tyr11-SRIF binding to membrane preparations expressing SSTR-3; conditions: SST-R3, read-out: Percent inhibition of SRIF-14 binding; for inhibition at 1 µM: 10^−6M; for inhibition at 0.1 µM: 10^−7M; for inhibition at 0.01 µM: 10^−8M
T1 construct: expressed in transfected cells
T1 sequence (P32745 whole entry): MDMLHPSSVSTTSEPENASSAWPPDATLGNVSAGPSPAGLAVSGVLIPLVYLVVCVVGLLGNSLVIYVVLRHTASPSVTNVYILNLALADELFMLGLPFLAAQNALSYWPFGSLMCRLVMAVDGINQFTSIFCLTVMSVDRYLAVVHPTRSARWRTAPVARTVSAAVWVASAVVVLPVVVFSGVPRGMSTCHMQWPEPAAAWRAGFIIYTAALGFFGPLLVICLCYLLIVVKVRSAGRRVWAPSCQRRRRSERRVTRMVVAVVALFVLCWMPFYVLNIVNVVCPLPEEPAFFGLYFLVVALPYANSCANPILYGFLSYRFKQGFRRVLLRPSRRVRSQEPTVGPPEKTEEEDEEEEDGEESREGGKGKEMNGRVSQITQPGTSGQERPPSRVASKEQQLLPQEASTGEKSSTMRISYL
Procedure: The somatostatin analogs were tested for their potency in inhibition of the binding of ^125I-Tyr^11-SRIF (based on the method described by Raynor et. al., Molecular Pharmacology, 1993, 43, 838-844) to membrane preparations expressing the transmembranal somatostatin receptors (SSTR-1, 2, 3, 4 or 5). The receptor preparations used for these tests were either from the cloned human receptors selectively and stably expressed in Chinese Hamster Ovary (CHO) cells or from cell lines naturally expressing the SSTRs. […] The binding reactions were filtered, the filters were washed and the bound radioactivity was counted in gamma counter. Non specific binding was defined as the radioactivity remaining bound in the presence of 1 μM unlabeled SRIF-14.
(§1) In order to validate positive signals of the binding tests, and to eliminate non-specific signals, samples of irrelevant peptides, such as GnRH, that were synthesized and handled using the same procedures, were tested in the same assays as negative control samples. These samples had no binding activity in any of the assays. Results are shown below in Tables 5 and 6 and FIG. 1.

[2] = target: T2, SSTR-5 (Homo sapiens, UniProt P35346); experiment: Inhibition of 125I-Tyr11-SRIF binding to membrane preparations expressing SSTR-5; conditions: SST-R5, read-out: Percent inhibition of SRIF-14 binding; for inhibition at 1 µM: 10^−6M; for inhibition at 0.1 µM: 10^−7M; for inhibition at 0.01 µM: 10^−8M
T2 construct: expressed in transfected cells
T2 sequence (P35346 whole entry): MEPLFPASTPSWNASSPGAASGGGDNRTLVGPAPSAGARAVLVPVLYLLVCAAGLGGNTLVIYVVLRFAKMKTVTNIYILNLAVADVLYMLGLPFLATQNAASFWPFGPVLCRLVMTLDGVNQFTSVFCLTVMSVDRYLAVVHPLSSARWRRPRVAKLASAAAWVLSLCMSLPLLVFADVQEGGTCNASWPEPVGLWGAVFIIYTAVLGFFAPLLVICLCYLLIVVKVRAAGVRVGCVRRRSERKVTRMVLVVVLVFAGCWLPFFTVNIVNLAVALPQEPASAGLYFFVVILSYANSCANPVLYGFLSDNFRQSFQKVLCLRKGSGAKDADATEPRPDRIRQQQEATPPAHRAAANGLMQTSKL
Procedure: (§2) The receptor preparations used for these tests were either from the cloned human receptors selectively and stably expressed in Chinese Hamster Ovary (CHO) cells or from cell lines naturally expressing the SSTRs. […] The binding reactions were filtered, the filters were washed and the bound radioactivity was counted in gamma counter. Non specific binding was defined as the radioactivity remaining bound in the presence of 1 μM unlabeled SRIF-14.
as §1

[3] = in vitro; conditions: for remaining at 1 h / remaining at 3 h / remaining at 24 h: kidney or brush border membranes
Procedure: The assay was based on HPLC determination of peptide degradation as a function of time in renal homogenate at 37° C.

[4] = rat, in vivo, iv, 6 mg/kg
Procedure: PTR 3173 was tested in various species for its initial safety properties. Under the European Pharmacopoeia requirements for safety testing, it was declared a safe drug candidate at this stage of development.

[5] = Metabolic bio-stability against degradation by enzyme mixtures; assay type: in vitro ADME; conditions: in words; renal homogenate, rat liver homogenate and human serum
[6] = tested on: Opiate receptors; experiment: NovaScreen nonspecific binding, Opiate receptors; conditions: tested at 100 nM; FIG. 2
Source text: NovaScreen (Hanover, Md.) performed an assessment for nonspecific binding to various G-protein coupled receptor families. Binding studies to Neurokinin, Opiate and Muscarinic receptors were based on a comparison between the native hormone Somatostatin, Ocreotide and PTR 3173.

[7] = target: T3, cloned human somatostatin receptor 1 (human, UniProt P30872 1-391); experiment: 125I-Tyr11-SRIF displacement on SSTR membrane preparations, negative control peptide
T3 construct: whole, on cells; Tested as cell membrane preparations; also called SSTR-1; SSTR1
T3 sequence (P30872 whole entry): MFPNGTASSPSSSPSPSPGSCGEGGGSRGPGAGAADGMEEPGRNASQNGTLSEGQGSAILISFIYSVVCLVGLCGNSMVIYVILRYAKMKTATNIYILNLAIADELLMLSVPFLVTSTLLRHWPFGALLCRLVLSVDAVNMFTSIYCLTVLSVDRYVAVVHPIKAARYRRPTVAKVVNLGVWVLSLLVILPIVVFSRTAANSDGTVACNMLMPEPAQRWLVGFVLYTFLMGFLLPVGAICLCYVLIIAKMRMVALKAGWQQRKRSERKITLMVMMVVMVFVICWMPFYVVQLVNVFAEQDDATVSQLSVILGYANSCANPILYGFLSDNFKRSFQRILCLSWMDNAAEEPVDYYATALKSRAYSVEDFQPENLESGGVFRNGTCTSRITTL
Source text: as §2, with “counter.” for “counter. Non specific binding was defined as the radioactivity remaining bound in the presence of 1 μM unlabeled SRIF-14.”
as §1

[8] = target: T4, cloned human somatostatin receptor 2 (human, UniProt P30874 1-369); experiment: as above
T4 construct: whole, on cells; Tested as cell membrane preparations; also called SSTR-2; SSTR2
T4 sequence (P30874 whole entry): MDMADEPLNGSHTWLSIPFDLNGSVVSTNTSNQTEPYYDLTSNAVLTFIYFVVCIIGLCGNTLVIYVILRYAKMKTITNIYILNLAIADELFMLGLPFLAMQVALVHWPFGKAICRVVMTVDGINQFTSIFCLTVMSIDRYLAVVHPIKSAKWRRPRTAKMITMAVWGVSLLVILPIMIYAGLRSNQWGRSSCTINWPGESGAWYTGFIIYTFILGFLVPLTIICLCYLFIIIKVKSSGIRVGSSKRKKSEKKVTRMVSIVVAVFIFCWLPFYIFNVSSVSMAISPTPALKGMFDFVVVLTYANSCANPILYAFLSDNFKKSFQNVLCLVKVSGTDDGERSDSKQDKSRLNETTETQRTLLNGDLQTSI
Source text: as §2, with “counter.” for “counter. Non specific binding was defined as the radioactivity remaining bound in the presence of 1 μM unlabeled SRIF-14.”
as §1

[9] = target: T5, cloned human somatostatin receptor 3 (human, UniProt P32745 1-418); experiment: as above
T5 construct: whole, on cells; Tested as cell membrane preparations; also called SSTR-3; SSTR3
T5 sequence (P32745 whole entry): as the sequence (P32745 whole entry) above
Source text: as §2, with “counter.” for “counter. Non specific binding was defined as the radioactivity remaining bound in the presence of 1 μM unlabeled SRIF-14.”
as §1

[10] = target: T6, cloned human somatostatin receptor 4 (human, UniProt P31391 1-388); experiment: as above
T6 construct: whole, on cells; Tested as cell membrane preparations; also called SSTR-4; SSTR-R4
T6 sequence (P31391 whole entry): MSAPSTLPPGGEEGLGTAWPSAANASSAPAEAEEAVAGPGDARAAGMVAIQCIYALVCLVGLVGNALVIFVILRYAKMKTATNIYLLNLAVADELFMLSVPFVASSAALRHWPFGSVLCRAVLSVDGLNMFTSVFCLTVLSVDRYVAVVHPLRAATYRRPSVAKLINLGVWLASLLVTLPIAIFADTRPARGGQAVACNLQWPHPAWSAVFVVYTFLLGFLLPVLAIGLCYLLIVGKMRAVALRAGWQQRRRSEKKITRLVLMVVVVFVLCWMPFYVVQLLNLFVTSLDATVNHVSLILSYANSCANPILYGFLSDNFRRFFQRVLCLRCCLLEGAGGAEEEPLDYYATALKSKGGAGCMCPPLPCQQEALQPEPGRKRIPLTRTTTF
Source text: as §2, with “counter.” for “counter. Non specific binding was defined as the radioactivity remaining bound in the presence of 1 μM unlabeled SRIF-14.”
as §1

[11] = target: T7, cloned human somatostatin receptor 5 (human, UniProt P35346 1-364); experiment: as above
T7 construct: whole, on cells; Tested as cell membrane preparations; also called SSTR-5; SSTR5
T7 sequence (P35346 whole entry): as the sequence (P35346 whole entry) above
Source text: as §2, with “counter.” for “counter. Non specific binding was defined as the radioactivity remaining bound in the presence of 1 μM unlabeled SRIF-14.”
as §1

[12] = target: T7, cloned human somatostatin receptor 5; experiment: IC50 for SST-R5 (subtype numbers stand in r6)
[13] = target: T3, cloned human somatostatin receptor 1; experiment: inhibition of SRIF binding, cloned human SSTR-1; head says nM, values evidently molar
Source text: as §2, with “counter.” for “counter. Non specific binding was defined as the radioactivity remaining bound in the presence of 1 μM unlabeled SRIF-14.”

[14] = target: T4, cloned human somatostatin receptor 2; experiment: inhibition of SRIF binding, cloned human SSTR-2; head says nM, values evidently molar
Source text: as §2, with “counter.” for “counter. Non specific binding was defined as the radioactivity remaining bound in the presence of 1 μM unlabeled SRIF-14.”

[15] = target: T5, cloned human somatostatin receptor 3; experiment: inhibition of SRIF binding, cloned human SSTR-3; head says nM, values evidently molar
Source text: as §2, with “counter.” for “counter. Non specific binding was defined as the radioactivity remaining bound in the presence of 1 μM unlabeled SRIF-14.”

[16] = target: T7, cloned human somatostatin receptor 5; experiment: inhibition of SRIF binding, cloned human SSTR-5; head says nM, values evidently molar
Source text: as §2, with “counter.” for “counter. Non specific binding was defined as the radioactivity remaining bound in the presence of 1 μM unlabeled SRIF-14.”

[17] = target: T7, cloned human somatostatin receptor 5; experiment: 125I-Tyr11-SRIF displacement, membranes, cloned human SST-R5
[18] = target: T5, cloned human somatostatin receptor 3; experiment: 125I-Tyr11-SRIF displacement, membranes, cloned human SST-R3
Source text: as §2, with “counter.” for “counter. Non specific binding was defined as the radioactivity remaining bound in the presence of 1 μM unlabeled SRIF-14.”

[19] = target: T3, cloned human somatostatin receptor 1; experiment: IC50 for SST-R1 (subtype numbers stand in r6)
[20] = target: T5, cloned human somatostatin receptor 3; experiment: IC50 for SST-R3 (subtype numbers stand in r6)

Molecule: NCCCC[C@@H]1NC(=O)[C@@H](Cc2c[nH]c3ccccc23)NC(=O)[C@H](Cc2ccccc2)NC(=O)[C@H](Cc2ccccc2)NC(=O)[C@H](Cc2ccccc2)NCC(=O)NCCN([C@@H](Cc2ccccc2)C(N)=O)C1=O [PTR 3113, Phe(C1)-Phe-Phe-(D)Trp-Lys-Phe(N2)-X]
- inhibition at 1 µM [1]: 94%
- inhibition at 0.1 µM [1]: 65%
- inhibition at 0.01 µM [1]: 16%
- inhibition at 1 µM [2]: 86%
- inhibition at 0.1 µM [2]: 50%
- inhibition at 0.01 µM [2]: 0%
- remaining at 1 h [3]: 100%
- remaining at 3 h [3]: 100%
- remaining at 24 h [3]: 100%
- safety [4]: safe

Molecule: NCCCC[C@H]1NC(=O)[C@@H](Cc2c[nH]c3ccccc23)NC(=O)[C@H](Cc2ccccc2)NC(=O)[C@H](Cc2ccccc2)NC(=O)[C@H](Cc2ccccc2)NCC(=O)NCCN([C@@H](Cc2ccccc2)C(N)=O)C1=O [PTR 3123, Phe(C1)-Phe-Phe-(D)Trp-(D)Lys-Phe(N2)-X]
- inhibition at 1 µM [1]: 84%
- inhibition at 0.1 µM [1]: 41%
- inhibition at 0.01 µM [1]: 24%
- inhibition at 1 µM [2]: 0%
- inhibition at 0.1 µM [2]: 0%
- inhibition at 0.01 µM [2]: 0%
- remaining at 1 h [3]: 100%
- remaining at 3 h [3]: 100%
- remaining at 24 h [3]: 100%
- safety [4]: safe

Molecule: NCCCC[C@@H]1NC(=O)[C@@H](Cc2c[nH]c3ccccc23)NC(=O)[C@H](Cc2ccc(O)cc2)NC(=O)[C@H](Cc2ccccc2)NCCNC(=O)CCN(CC(N)=O)C(=O)[C@H](Cc2ccc3ccccc3c2)NC(=O)[C@H](CO)NC1=O [PTR 3201, Phe(N2)-Tyr-(D)Trp-Lys-Ser-2Nal-Gly(C2)-X] (H-[N(2-aminoethyl)Phe]Y[dW]KS[2Nal][N(CH2CH2CO)Gly]-NH2; lactam 1-7; N-terminus and C-terminus assumed)
- metabolic bio-stability against degradation by enzymes [5]: considerable metabolic bio-stability against degradation by enzymes

Molecule: C[C@@H](O)[C@@H]1NC(=O)[C@H](CCCCN)NC(=O)[C@@H](Cc2c[nH]c3ccccc23)NC(=O)[C@H](Cc2ccccc2)NC(=O)[C@@H]2CSSC[C@H](NC1=O)C(=O)N([C@@H](Cc1ccccc1)C(N)=O)CCCNC(=O)CCCN[C@@H](Cc1ccccc1)C(=O)N2 [PTR 3205, Phe(C3)-Cys*-Phe-(D)Trp-Lys-Thr-Cys*-Phe(N3)-X]
- metabolic bio-stability against degradation by enzymes [5]: considerable metabolic bio-stability against degradation by enzymes

Molecule: C[C@H](N)C(=O)NCC(=O)N[C@H]1CSSC[C@@H](C(=O)O)NC(=O)[C@H](CO)NC(=O)[C@H]([C@@H](C)O)NC(=O)[C@H](Cc2ccccc2)NC(=O)[C@H]([C@@H](C)O)NC(=O)[C@H](CCCCN)NC(=O)[C@H](Cc2c[nH]c3ccccc23)NC(=O)[C@H](Cc2ccccc2)NC(=O)[C@H](Cc2ccccc2)NC(=O)[C@H](CC(N)=O)NC(=O)[C@H](CCCCN)NC1=O [SRIF, H-Ala^1-Gly^2-Cys^3-Lys^4-Asn^5-Phe^6-Phe^7-Trp^8-Lys^9-Thr^10-Phe^11-Thr^12-Ser^13-Cys^14-OH, reference compound]
- Percent of intact molecule after incubation in renal homogenate ([3]; Time 0 hrs, 37° C.): 100%
- remaining at 1 h [3]: 5%
- remaining at 3 h [3]: 0%
- remaining at 24 h [3]: 0%
- binding to Opiate receptors [6]: did not bind

B2: PTR 3207 (peptide)
peptide: [dF]CFW[dW]KTF[Gly(S2)]-NH2
modifications: disulfide 2-9; reading uncertain
notes: Backbone to side chain cyclized nonapeptide
- IC50 [12]: 0.004 µM
- IC50 [13]: 0.1 µM
- IC50 [14]: 0.001 µM
- IC50 [15]: 0.001 µM
- IC50 [16]: 0.01 µM

B5: PTR 3123 (peptide)
peptide: [Phe(C1)]FF[dW][dK][N(2-aminoethyl)Phe]
modifications: lactam 1-6; reading uncertain
notes: Backbone cyclized hexapeptide
- percent inhibition of SRIF-14 binding at 10^-7M [17]: 0%
- percent inhibition of SRIF-14 binding at 10^-8M [17]: 0%
- percent inhibition of SRIF-14 binding at 10^-6M [18]: 84%
- percent inhibition of SRIF-14 binding at 10^-7M [18]: 41%
- percent inhibition of SRIF-14 binding at 10^-8M [18]: 24%

B7: PTR 3197 (peptide)
peptide: CFW[dW]KTF[Gly(S2)]-NH2
modifications: disulfide 1-8; reading uncertain
notes: Backbone to side chain cyclized octapeptide
- IC50 [19]: 1 µM
- IC50 [20]: 0.04 µM
- IC50 [13]: 0.01 µM
- IC50 [14]: 0.01 µM
- IC50 [15]: 0.001 µM
- IC50 [16]: 0.01 µM

The next lines start with the values.

- binding result [7]: no binding
- binding result [8]: no binding
- binding result [9]: no binding
- binding result [10]: no binding
- binding result [11]: no binding
B1: GnRH (peptide, UniProt P01148 24-33, looked up)
peptide: QHWSYGLRPG
modifications: not fully specified (residue 1, C-terminus)
notes: Negative control sample; also called irrelevant peptides, such as GnRH

- IC50 [12]: 0.037 µM
B3: PTR 3219 (peptide)
peptide: FGFWWKTFG
modifications: (D)Phe at 1; Gly(S2) building units at 2 and 9 bridged to each other; (D)Trp at 5; C-terminal amide

- IC50 [12]: 0.0013 µM
B4: PTR 3211 (peptide)
peptide: {mercaptoacetic acid}-FW[dW]KTF[Gly(S2)]-NH2
modifications: disulfide N-7; reading uncertain
notes: Cyclized between the SH moiety and the SH-type building unit

- IC50 [12]: 0.0041 µM
B6: PTR 3217 (peptide)
peptide: [Mpa]FW[dW]KTF[Gly(S2)]-NH2
modifications: bridge N-8; reading uncertain
